The source of these data is EP4741379A1, “CLASS OF PROGRAMMED CELL DEATH INHIBITORS, PREPARATION METHOD THEREFOR AND USE THEREOF” (SHANGHAI INSTITUTE OF ORGANIC CHEMISTRY, CHINESE ACADEMY OF …, priority 2023, dated 2025).

Where two headings read alike, the source gives them in different places.

Assay [1] concerns FADD-deficient Jurkat cells. Nature of the assay: TNF-induced programmed necrosis of FADD-deficient Jurkat cells (Cell Titer-Glo viability). Format: cell-based, human. The note with it: for EC50: Homo sapiens, Jurkat; for programmed necroptosis inhibitory activity compared to SAR443122: TNFα alone or TNFα + SM164, human derived FADD-deficient Jurkat cells. The procedure: (§1) The biological test protocol is adopted to test effects of the compound on TNF-induced programmed necrosis of FADD (Fas-associated death domain)-deficient Jurkat cells and L929 cells.
(§2) Two different stimulation methods were used: treating with tumor necrosis factor (TNFα) alone, or treating with TNFα in combination of mitochondrial-derived cysteine-aspartate activator (SMAC) SM164. Cell viability was determined by measuring chemiluminescence values, thereby assessing the bioactivity of the compounds in inhibiting programmed cell necrosis.
(§3) Method: FADD-deficient Jurkat cells: FADD-deficient Jurkat cells (human peripheral blood leukemia T cell line) were cultured in vitro. After reaching logarithmic growth phase, cells were collected and centrifuged at 1000 rpm for 5 minutes. A supernatant was discarded. A cell concentration was adjusted to 2.5×10^5/mL, and cells were seeded into a 384-well plate at 40 µL per well. In the corresponding wells, 5 µL of SM164 (50 nM) and compounds diluted with cell culture medium were added. After pre-treatment at 37°C for 1 hour, 5 µL of TNFα (50 ng/mL) diluted with cell culture medium was added to each well as a stimulation group, while 5 µL of culture medium was added as a control group. After the plate was incubated in a cell culture incubator (37°C, 5% CO2) for 14 hours, 15 µL of Cell Titer-Glo solution was added to each well. Then, the plate was incubated at room temperature for 30 minutes. Luminescence was measured to assess intracellular ATP levels. Cell viability was set at 100% for unstimulated DMSO control wells. […] The plate was placed in a cell culture incubator (37°C, 5% CO2) and cultured for 12 hours. In the corresponding wells, 5 µL of SM164 (500 nM) and compounds diluted with cell culture medium were added. After pre-treatment at 37°C for 1 hour, 5 µL of TNFα (500 ng/mL) diluted with cell culture medium was added to the wells as a stimulation group, while 5 µL of culture medium was added as a control group. After the plate was incubated in the cell incubator (37°C, 5% CO2) for 14 hours, 15 µL of Cell Titer-Glo solution was added to each well. Then, the plate was incubated at room temperature for 30 minutes, and luminescence was measured to assess intracellular ATP levels. Cell viability was set at 100% for unstimulated DMSO control wells. EC50 values of the compounds were calculated using Prism GraphPad statistical software.
(In general: In ATP-based viability assays light output follows the ATP content of the culture.)

The test system of the next assay is L929 cells. Kind of assay: TNF-induced programmed necrosis of L929 cells (Cell Titer-Glo viability). Format: cell-based, mouse. The note with it: for EC50: Mus musculus. As to the method:
as §1, §2, §3

In another assay the target is T1, mouse derived RIPK1 (Mus musculus, UniProt Q60855).
T1 sequence (Q60855 1-656): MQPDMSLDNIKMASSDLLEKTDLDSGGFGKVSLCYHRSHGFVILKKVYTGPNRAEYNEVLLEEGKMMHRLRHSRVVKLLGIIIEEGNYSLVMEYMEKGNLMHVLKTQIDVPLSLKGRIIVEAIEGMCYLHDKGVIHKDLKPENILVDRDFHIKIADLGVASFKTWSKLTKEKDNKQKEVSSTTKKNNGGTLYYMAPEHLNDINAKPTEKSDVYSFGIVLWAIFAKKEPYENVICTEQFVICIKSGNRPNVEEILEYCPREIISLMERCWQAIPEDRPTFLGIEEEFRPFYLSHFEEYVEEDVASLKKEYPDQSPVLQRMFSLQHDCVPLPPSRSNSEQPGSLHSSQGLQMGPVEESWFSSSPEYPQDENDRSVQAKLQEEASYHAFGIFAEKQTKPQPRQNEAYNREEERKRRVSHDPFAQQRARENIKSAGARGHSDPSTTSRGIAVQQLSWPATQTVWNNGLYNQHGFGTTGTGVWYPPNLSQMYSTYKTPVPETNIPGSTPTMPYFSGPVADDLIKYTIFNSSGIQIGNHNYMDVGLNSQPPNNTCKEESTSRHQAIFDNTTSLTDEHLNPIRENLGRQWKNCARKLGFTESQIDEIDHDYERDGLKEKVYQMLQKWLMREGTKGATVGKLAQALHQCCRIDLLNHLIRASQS
Nature of the assay: Inhibitory activity against mouse derived RIPK1 (statement only). The note with it: in words.

[2] abbreviates: stimulation with TNFα + SM164, read-out: EC50 (nM) FADD^-/- Jurkat cells (human-derived) TNFα+ SM164.
Where [3] appears, read: stimulation with TNFα alone, read-out: EC50 (nM) FADD^-/- Jurkat cells (human-derived) TNFα.
Setting [4] is: L929, stimulation with TNFα + SM164, read-out: EC50 (nM) L929 cells (mouse-derived) TNFα+ SM164.
Setting [5] is: L929, stimulation with TNFα alone, read-out: EC50 (nM) L929 cells (mouse-derived) TNFα.

With `C[C@H](NC(=O)c1nnn(C)c1Cc1ccccc1)c1ccc(C#CC2CC2)cc1` [QY-18-47], the EC50 in assay [1] (setting [2]) stood at 61 nM; in assay [1] (setting [3]) it was 0.7 nM; with L929 cells (setting [4]), 73 nM; in the assay with L929 cells (setting [5]), 1 nM.
`C[C@H](NC(=O)c1nnn(C)c1Cc1ccccc1)c1ccc(C#Cc2cnoc2)cc1` [QY-18-77]: the results for the EC50 (in assay [1] (setting [2]); in assay [1] (setting [3]); with L929 cells (setting [5])) were 32 nM, 0.3 nM and 733 nM, respectively.
In the case of `C[C@H](NC(=O)c1cnn(C)c1Cc1ccccc1)c1ccc(C#Cc2ccccn2)cc1` [QY-20-2], the EC50 in assay [1] (setting [2]) was found to be 0.3 nM; in assay [1] (setting [3]), 0.03 nM; in the assay with L929 cells (setting [4]), 0.5 nM; in the assay on L929 cells (setting [5]) it was 0.1 nM.
For the compound `C[C@H](NC(=O)c1nnn(C)c1Cc1ccc(F)cc1)c1ccc(C#Cc2ccccn2)cc1` [QY-20-53], the EC50 was 0.05 nM in assay [1] (setting [2]), less than 0.01 nM in assay [1] (setting [3]), 0.1 nM in the assay on L929 cells (setting [4]) and 0.03 nM in the assay with L929 cells (setting [5]). Moreover, in assay [1], the “programmed necroptosis inhibitory activity compared to SAR443122” value was “stronger”.
With `C[C@H](NC(=O)c1nnn(C)c1Cc1cccc(F)c1)c1ccc(C#Cc2ccccn2)cc1` [QY-20-54], the EC50 in assay [1] (setting [2]) is less than 0.01 nM; in assay [1] (setting [3]), less than 0.01 nM; in the assay with L929 cells (setting [4]) it was 0.3 nM; with L929 cells (setting [5]) it was 0.05 nM. The “programmed necroptosis inhibitory activity compared to SAR443122” value in assay [1] is “stronger”.
With `C[C@H](NC(=O)c1nnn(C)c1Cc1ccccc1)c1ccc(C#Cc2cncn2C)cc1` [QY-20-55], the EC50 in assay [1] (setting [2]) came out at 1.4 nM; in assay [1] (setting [3]) it was 0.1 nM; in the assay on L929 cells (setting [4]) it was 23 nM; in the assay with L929 cells (setting [5]), 2.2 nM.
As to `CN1C(=O)[C@@H](NC(=O)c2nnc(Cc3ccccc3)[nH]2)COc2cccnc21` [SAR443122, reference compound], the EC50 in assay [1] (read-out: EC50 (nM) FADD^-/- Jurkat cells (human-derived) TNFα) was 0.9 nM; in the assay with L929 cells (L929, read-out: EC50 (nM) L929 cells (mouse-derived) TNFα), greater than 1000 nM. Moreover, the “programmed necroptosis inhibitory activity on mouse derived L929 cells” value in the assay with L929 cells (in words) is “nearly inactive”. Further, on mouse derived RIPK1, the “inhibitory activity against mouse derived RIPK1” value is given as “very poor inhibitory activity”.
